Test results published in PubChem BioAssay (NCI).
Where “and” joins values, the source holds several entries; their conditions need not be identical. Equal entries are not always repeated.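 Values below derive from 48-hour exposures of cells grown in 96-well plates, with endpoints linearly interpolated between the two concentrations bracketing the appropriate inhibition level. Abbreviation: GI50, concentration required for 50% inhibition of growth. TGI denotes the concentration required for complete inhibition of growth.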

Legend:
Assay in all cases: NCI anticancer screen, dose series, 48 h
A498 renal = tested on: A498 renal
HT29 colon = tested on: HT29 colon
LOX IMVI melanoma = tested on: LOX IMVI melanoma
MALME-3M melanoma = tested on: MALME-3M melanoma
MDA-MB-231 breast = tested on: MDA-MB-231 breast
MDA-MB-435 = tested on: MDA-MB-435
MOLT-4 leukemia = tested on: MOLT-4 leukemia
NCI/ADR-RES ovarian = tested on: NCI/ADR-RES ovarian
OVCAR-8 ovarian = tested on: OVCAR-8 ovarian
SK-MEL-28 melanoma = tested on: SK-MEL-28 melanoma

| Compound | TGI (A498 renal) | TGI (HT29 colon) | TGI (LOX IMVI melanoma) | TGI (MALME-3M melanoma) | TGI (MDA-MB-231 breast) | TGI (MDA-MB-435) | TGI (MOLT-4 leukemia) | TGI (NCI/ADR-RES ovarian) [µM] | TGI (OVCAR-8 ovarian) | TGI (SK-MEL-28 melanoma) | GI50 (A498 renal) | GI50 (HT29 colon) | GI50 (LOX IMVI melanoma) | GI50 (MALME-3M melanoma) | GI50 (MDA-MB-231 breast) | GI50 (MDA-MB-435) | GI50 (MOLT-4 leukemia) | GI50 (OVCAR-8 ovarian) | GI50 (SK-MEL-28 melanoma) |
| --- | --- | --- | --- | --- | --- | --- | --- | --- | --- | --- | --- | --- | --- | --- | --- | --- | --- | --- | --- |
| CC(C)=CC[C@]12CCN(C)[C@H]1N(S(=O)(=O)c1ccccc1)c1ccccc12 | > 100 µM | > 100 µM | > 51.6 µM | > 100 µM | > 100 µM | > 71.6 µM | > 100 µM | > 100 | > 100 µM | > 100 µM |  |  |  |  |  |  |  |  |  |
| CC1(C)COC2=C(C1)C(=O)c1ccccc1C2=O | 3.56 µM | 5.41 µM | 4.22 µM | 3.29 µM | 4 µM | 0.338 µM | 3.91 µM | 1.94 | 1.53 µM | 3.11 µM |  |  |  |  |  |  |  |  |  |
| COc1nc2ccc(COc3ccc(C(=O)O)cc3)cc2nc1OC | > 100 µM | > 100 µM | > 100 µM | > 100 µM | > 100 µM | > 100 µM | > 100 µM | > 100 | > 100 µM | > 100 µM |  |  |  |  |  |  |  |  |  |
| CC(=O)OCC1OC(n2c(S)c(C#N)c(-c3ccccc3)c(C#N)c2=O)C(OC(C)=O)C(OC(C)=O)C1OC(C)=O (centres undefined) | > 100 µM and 74 µM | > 100 µM and 52.8 µM | > 100 µM and 31 µM | > 100 µM and 98.9 µM | > 100 µM and 83.7 µM | > 100 µM and 34.6 µM | > 100 µM and 50.8 µM | > 100 | > 100 µM and 36.2 µM | > 100 µM and 62.8 µM | > 69 µM and 30.3 µM | > 100 µM and 24.3 µM | > 100 µM and 17.2 µM | > 100 µM and 32.2 µM | > 71.9 µM and 22.1 µM | > 100 µM and 17.2 µM | > 100 µM and 23.6 µM | > 100 µM and 16.7 µM | > 100 µM and 25.7 µM |
| O=C(O)[C@H](CCC[C@H]1C(=O)O[C@H](c2ccccc2)[C@H](c2ccccc2)N1C(=O)OCc1ccccc1)N[C@@H](c1ccccc1)[C@H](O)c1ccccc1 | 62.1 µM | > 100 µM | 51.9 µM | 42.2 µM | 33.1 µM | 40.8 µM | 62 µM | > 100 | 45.7 µM | 39 µM |  |  |  |  |  |  |  |  |  |
| COC1(CC[C@@H](C)COC2OC(CO)C(O)C(O)C2O)O[C@H]2C[C@H]3[C@@H]4CC=C5C[C@@H](OC6OC(CO)C(O)C(OC7OC(CO)C(O)C(O)C7O)C6OC6OC(C)C(O)C(O)C6O)CC[C@]5(C)[C@H]4CC[C@]3(C)[C@H]2[C@@H]1C (some centres undefined) | 26.9 µM | > 23.1 µM | 7.03 µM | 9.29 µM | 16.5 µM | 8.52 µM | > 31.6 µM | 33.6 | 59.7 µM | 12.4 µM |  |  |  |  |  |  |  |  |  |
| CC(=O)OCC1OC(n2c(Br)nc3c2c(=O)n(C)c(=O)n3C)C(OC(C)=O)C1OC(C)=O (centres undefined) | > 100 µM | > 100 µM | > 100 µM | > 100 µM | > 100 µM | > 100 µM | > 100 µM | > 100 | > 100 µM | > 100 µM |  |  |  |  |  |  |  |  |  |
